Read-outs that look alike come from different tables or passages of the source.
Key:
ducksalad = assay: Test B flooded paddy test; assay type: in vivo, Heteranthera limosa; conditions: Heteranthera limosa, 312 h, 250 g ai/ha, Flood, 13 days, 0 to 100 scale (0 no effect, 100 complete control); read-out: Plant response rating, Ducksalad
In short: (§1)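 2-leaf stage; pots flooded 3 cm over soil; compound dosed into paddy water; depth kept constant. Greenhouse, 13 d. Visual rating vs controls, 0 (no effect)–100 (complete control). Dash = no result.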

ryegrass, Italian = assay: Test A postemergence; assay type: in vivo, Lolium multiflorum; conditions: Lolium multiflorum, post-emergence, 240 h; for pest or weed control at 125 g/ha: 125 g ai/ha; for pest or weed control at 500 g/ha: 500 g ai/ha
In short: (§2)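 Weeds and crops in loam–sand blend were sprayed preemergence onto soil or postemergence at 2–10 cm (one- to two-leaf stage). Test chemicals were in a non-phytotoxic solvent with surfactant. After 10 days in the greenhouse, injury was rated visually against untreated controls on a 0 (no effect) to 100 (complete control) scale.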

blackgrass [1] = assay: Test A preemergence; assay type: in vivo, Alopecurus myosuroides; conditions: Alopecurus myosuroides, pre-emergence, 240 h, read-out: Plant response rating, Blackgrass; for pest or weed control at 125 g/ha: 125 g ai/ha; for pest or weed control at 500 g/ha: 500 g ai/ha
In short: as §2

galium = assay: Test A postemergence; assay type: in vivo, Galium aparine; conditions: Galium, post-emergence, 240 h; for pest or weed control at 125 g/ha: 125 g ai/ha; for pest or weed control at 500 g/ha: 500 g ai/ha
In short: as §2

goosegrass [2] = assay: Test A preemergence; assay type: in vivo, Eleusine indica; conditions: Eleusine indica, pre-emergence, 240 h, read-out: Plant response rating, Goosegrass; for pest or weed control at 125 g/ha: 125 g ai/ha; for pest or weed control at 500 g/ha: 500 g ai/ha
In short: as §2

blackgrass [3] = assay: Test A postemergence; assay type: in vivo, Alopecurus myosuroides; conditions: Alopecurus myosuroides, post-emergence, 240 h; for pest or weed control at 125 g/ha: 125 g ai/ha; for pest or weed control at 500 g/ha: 500 g ai/ha
In short: as §2

sedge, umbrella = assay: Test B flooded paddy test; assay type: in vivo, Cyperus difformis; conditions: Cyperus difformis, 312 h; 250 g ai/ha, Flood, 13 days, 0 to 100 scale (0 no effect, 100 complete control); read-out: Plant response rating, Sedge, Umbrella
In short: as §1

goosegrass [4] = assay: Test A postemergence; assay type: in vivo, Eleusine indica; conditions: Eleusine indica, post-emergence, 240 h; for pest or weed control at 125 g/ha: 125 g ai/ha; for pest or weed control at 500 g/ha: 500 g ai/ha
In short: as §2

oat, wild [5] = assay: Test A preemergence; assay type: in vivo, Avena fatua; conditions: Avena fatua, pre-emergence, 240 h, read-out: Plant response rating, Oat, Wild; for pest or weed control at 125 g/ha: 125 g ai/ha; for pest or weed control at 500 g/ha: 500 g ai/ha
In short: as §2

soybean = assay: Test A preemergence; assay type: in vivo, Glycine max; conditions: Glycine max, pre-emergence, 240 h, read-out: Plant response rating, Soybean; for plant injury at 125 g/ha: 125 g ai/ha; for plant injury at 500 g/ha: 500 g ai/ha
In short: as §2

oat, wild [6] = assay: Test A postemergence; assay type: in vivo, Avena fatua; conditions: Avena fatua, post-emergence, 240 h; for pest or weed control at 125 g/ha: 125 g ai/ha; for pest or weed control at 500 g/ha: 500 g ai/ha
In short: as §2

wheat = assay: Test A postemergence; assay type: in vivo, Triticum aestivum; conditions: Triticum aestivum, post-emergence, 240 h; for plant injury at 125 g/ha: 125 g ai/ha; for plant injury at 500 g/ha: 500 g ai/ha
In short: as §2

kochia = assay: Test A preemergence; assay type: in vivo, Bassia scoparia; conditions: Bassia scoparia, pre-emergence, 240 h, read-out: Plant response rating, Kochia; for pest or weed control at 125 g/ha: 125 g ai/ha; for pest or weed control at 500 g/ha: 500 g ai/ha
In short: as §2

rice = assay: Test B flooded paddy test; assay type: in vivo, Oryza sativa; conditions: Oryza sativa, 312 h; 250 g ai/ha, Flood, 13 days, 0 to 100 scale (0 no effect, 100 complete control); read-out: Plant response rating, Rice
In short: as §1

[7] = postemergence, 10 days, visual injury, 0 to 100 scale (0 no effect, 100 complete control), read-out: Plant response rating, Ryegrass, Italian
[8] = visual injury after 10 days, 0 to 100 scale, 0 is no effect, 100 is complete control
[9] = 0 to 100 scale (0 no effect, 100 complete control), 10 days
[10] = postemergence, 10 days, visual injury, 0 to 100 scale (0 no effect, 100 complete control), read-out: Plant response rating, Galium
[11] = postemergence, 10 days, visual injury, 0 to 100 scale (0 no effect, 100 complete control), read-out: Plant response rating, Blackgrass
[12] = Postemergence, 0 to 100 scale, read-out: Plant response rating, Blackgrass
[13] = postemergence, 10 days, visual injury, 0 to 100 scale (0 no effect, 100 complete control), read-out: Plant response rating, Goosegrass
[14] = postemergence, 10 days, visual injury, 0 to 100 scale (0 no effect, 100 complete control), read-out: Plant response rating, Oat, Wild
[15] = postemergence, 10 days, visual injury, 0 to 100 scale (0 no effect, 100 complete control), read-out: Plant response rating, Wheat

## COc1ccc(-n2cncn2)cc1C(=O)N1C[C@H](C)Oc2c(C)cccc21 [Compound 63, [(2S)-2,3-Dihydro-2,8-dimethyl-4H-1,4-benzoxazin-4-yl][2-methoxy-5-(1H-1,2,4-triazol-1-yl)phenyl]methanone]
ducksalad
  pest or weed control at 250 g/ha: 90%
ryegrass, Italian; [7]
  pest or weed control at 125 g/ha: 80%
ryegrass, Italian; Postemergence, 0 to 100 scale, read-out: Plant response rating, Ryegrass, Italian
  pest or weed control at 500 g/ha: 100%
Blackgrass [1]; [8]
  pest or weed control at 125 g/ha: 80%
Blackgrass [1]; [9]
  pest or weed control at 500 g/ha: 90%
galium; [10]
  pest or weed control at 125 g/ha: 100%
galium; Postemergence, 0 to 100 scale, read-out: Plant response rating, Galium
  pest or weed control at 500 g/ha: 100%
Goosegrass [2]; [8]
  pest or weed control at 125 g/ha: 100%
Goosegrass [2]; [9]
  pest or weed control at 500 g/ha: 100%
Blackgrass [3]; [11]
  pest or weed control at 125 g/ha: 70%
Blackgrass [3]; [12]
  pest or weed control at 500 g/ha: 90%
sedge, umbrella
  pest or weed control at 250 g/ha: 98%
Goosegrass [4]; [13]
  pest or weed control at 125 g/ha: 70%
Goosegrass [4]; Postemergence, 0 to 100 scale, read-out: Plant response rating, Goosegrass
  pest or weed control at 500 g/ha: 80%
oat, wild [5]; [8]
  pest or weed control at 125 g/ha: 60%
oat, wild [5]; [9]
  pest or weed control at 500 g/ha: 90%
soybean; [8]
  plant injury at 125 g/ha: 100%
soybean; [9]
  plant injury at 500 g/ha: 100%
oat, wild [6]; [14]
  pest or weed control at 125 g/ha: 70%
oat, wild [6]; Postemergence, 0 to 100 scale, read-out: Plant response rating, Oat, Wild
  pest or weed control at 500 g/ha: 80%
wheat; [15]
  plant injury at 125 g/ha: 70%
wheat; Postemergence, 0 to 100 scale, read-out: Plant response rating, Wheat
  plant injury at 500 g/ha: 90%
kochia; [8]
  pest or weed control at 125 g/ha: 30%
kochia; [9]
  pest or weed control at 500 g/ha: 40%
rice
  plant injury at 250 g/ha: 0%

## Cc1ccc(-n2cnc(C(C)C)n2)cc1C(=O)N1C[C@H](C)Oc2c(Cl)cccc21 [Compound 73, [(2S)-8-Chloro-2,3-dihydro-2-methyl-4H-1,4-benzoxazin-4-yl][2-methyl-5-[3-(1-methylethyl)-1H-1,2,4-triazol-1-yl]phenyl]methanone]
ducksalad
  pest or weed control at 250 g/ha: 70%
ryegrass, Italian; [7]
  pest or weed control at 500 g/ha: 100%
Blackgrass [1]; [8]
  pest or weed control at 125 g/ha: 70%
Blackgrass [1]; [9]
  pest or weed control at 500 g/ha: 90%
galium; [10]
  pest or weed control at 125 g/ha: 100%
  pest or weed control at 500 g/ha: 100%
Goosegrass [2]; [8]
  pest or weed control at 125 g/ha: 100%
Goosegrass [2]; [9]
  pest or weed control at 500 g/ha: 100%
Blackgrass [3]; [11]
  pest or weed control at 125 g/ha: 90%
Blackgrass [3]; [12]
  pest or weed control at 500 g/ha: 90%
sedge, umbrella
  pest or weed control at 250 g/ha: 70%
Goosegrass [4]; [13]
  pest or weed control at 125 g/ha: 20%
  pest or weed control at 500 g/ha: 60%
oat, wild [5]; [8]
  pest or weed control at 125 g/ha: 80%
oat, wild [5]; [9]
  pest or weed control at 500 g/ha: 90%
soybean; [8]
  plant injury at 125 g/ha: 60%
soybean; [9]
  plant injury at 500 g/ha: 100%
oat, wild [6]; [14]
  pest or weed control at 500 g/ha: 80%
wheat; [15]
  plant injury at 500 g/ha: 80%
kochia; [8]
  pest or weed control at 125 g/ha: 100%
kochia; [9]
  pest or weed control at 500 g/ha: 100%
rice
  plant injury at 250 g/ha: 20%

## Cc1cccc2c1O[C@@H](C)CN2C(=O)c1cccc(-n2cn[nH]c2=O)c1 [Compound 122, 4-[3-[[(2S)-2,3-Dihydro-2,8-dimethyl-4H-1,4-benzoxazin-4-yl]carbonyl]phenyl]-2,4-dihydro-3H-1,2,4-triazol-3-one]
ducksalad
  pest or weed control at 250 g/ha: 0%
ryegrass, Italian; postemergence, 10 days, 0 to 100 scale (0 no effect, 100 complete control), read-out: Ryegrass, Italian plant response rating
  pest or weed control at 125 g/ha: 0%
ryegrass, Italian; [7]
  pest or weed control at 500 g/ha: 30%
Blackgrass [1]; [8]
  pest or weed control at 125 g/ha: 10%
  pest or weed control at 500 g/ha: 50%
galium; postemergence, 10 days, 0 to 100 scale (0 no effect, 100 complete control), read-out: Galium plant response rating
  pest or weed control at 125 g/ha: 50%
galium; [10]
  pest or weed control at 500 g/ha: 50%
Goosegrass [2]; [8]
  pest or weed control at 125 g/ha: 0%
  pest or weed control at 500 g/ha: 90%
Blackgrass [3]; postemergence, 10 days, 0 to 100 scale (0 no effect, 100 complete control), read-out: Blackgrass plant response rating
  pest or weed control at 125 g/ha: 0%
Blackgrass [3]; [11]
  pest or weed control at 500 g/ha: 50%
sedge, umbrella
  pest or weed control at 250 g/ha: 0%
Goosegrass [4]; postemergence, 10 days, 0 to 100 scale (0 no effect, 100 complete control), read-out: Goosegrass plant response rating
  pest or weed control at 125 g/ha: 0%
Goosegrass [4]; [13]
  pest or weed control at 500 g/ha: 60%
oat, wild [5]; [8]
  pest or weed control at 125 g/ha: 0%
  pest or weed control at 500 g/ha: 20%
soybean; [8]
  plant injury at 125 g/ha: 0%
  plant injury at 500 g/ha: 0%
oat, wild [6]; postemergence, 10 days, 0 to 100 scale (0 no effect, 100 complete control), read-out: Oat, Wild plant response rating
  pest or weed control at 125 g/ha: 0%
oat, wild [6]; [14]
  pest or weed control at 500 g/ha: 20%
wheat; postemergence, 10 days, 0 to 100 scale (0 no effect, 100 complete control), read-out: Wheat plant response rating
  plant injury at 125 g/ha: 10%
wheat; [15]
  plant injury at 500 g/ha: 10%
kochia; [8]
  pest or weed control at 125 g/ha: 0%
  pest or weed control at 500 g/ha: 10%
rice
  plant injury at 250 g/ha: 0%

Reference: US20260262643A1, “HERBICIDAL BENZOXAZINES” (FMC CORPORATION, priority 2022, published 2026)
